Laboratory results as given in US20240199558A1, “2,4,6-TRISUBSTITUTED 1,3,5-TRIAZINES AS MODULATORS OF CX3CR1” (ASTRAZENECA AB, priority 2022, published 2024).

Target: CX3CR1 (Homo sapiens (Human), UniProt P49238)
Assay: hCX3CR1 [3H]-AZD8797 competitive binding assay (filter)
Settings: CHO-hCX3CR1 membranes, 2 nM [3H]-AZD8797
Method: hCX3CR1 [^3H]-AZD8797 Competitive Binding Assay (Filter)
CHO-hCX3CR1 membranes (9 μg per well) together with 2 nM [^3H]-AZD8797 and different concentrations of competitor compound were incubated in 25 mM HEPES (pH 7.4), 10 mM MgCl2, 1 mM CaCl2) and 0.5% BSA in a Corning polystyrene flat-bottom 96-well plate. The plate was incubated for 2 h at room temperature before free radioligand was separated from bound by vacuum filtration on to a Multiscreen HTS+HiFlow FB (Millipore) filter plate, using a Biomek FX (Beckman Coulter). The filter plate was washed in ice-cold 25 mM HEPES (pH 7.4), 5 mM MgCl2, 1 mM CaCl2) and 500 mM NaCl and dried at 50° C. for 1 h. Scintillation cocktail, Optiphase Supermix (PerkinElmer) was added to each well and the radioactivity was measured using a MicroBeta Trilux reader (PerkinElmer). The DMSO concentration was held constant at 1%.

CX3CR1, sequence (P49238 whole entry): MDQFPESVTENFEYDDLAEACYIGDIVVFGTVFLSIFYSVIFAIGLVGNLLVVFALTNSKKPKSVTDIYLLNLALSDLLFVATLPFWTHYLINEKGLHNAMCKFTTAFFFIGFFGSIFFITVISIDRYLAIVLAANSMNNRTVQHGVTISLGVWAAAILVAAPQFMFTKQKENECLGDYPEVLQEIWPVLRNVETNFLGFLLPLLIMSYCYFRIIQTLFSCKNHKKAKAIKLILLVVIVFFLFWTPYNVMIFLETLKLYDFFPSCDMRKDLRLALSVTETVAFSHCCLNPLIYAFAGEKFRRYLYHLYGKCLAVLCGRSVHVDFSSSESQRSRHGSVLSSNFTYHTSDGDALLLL

Compound | IC50 [µM]
CC(C)C[C@H](CO)Nc1nc(CC(C)c2ccc(CCN3CCOCC3)cc2)nc(NS(C)(=O)=O)n1 (stereo partly drawn) [Example 138, N-(4-(((R)-1-Hydroxy-4-methylpentan-2-yl)amino)-6-(2-(4-(2-morpholinoethyl)phenyl)propyl)-1,3,5-triazin-2-yl)methanesulfonamide] | 0.119
COc1cccc(C(C)Cc2nc(N[C@@H](CO)CC(C)C)nc(NS(C)(=O)=O)n2)n1 (stereo partly drawn) [Example 166, N-(4-(((R)-1-Hydroxy-4-methylpentan-2-yl)amino)-6-(2-(6-methoxypyridin-2-yl)propyl)-1,3,5-triazin-2-yl)methanesulfonamide] | 0.726
CC(C)C[C@H](CO)Nc1nc(CC(C)c2cnc3c(c2)OCC(=O)N3C)nc(NS(C)(=O)=O)n1 (stereo partly drawn) [Example 125, N-(4-(((R)-1-Hydroxy-4-methylpentan-2-yl)amino)-6-(2-(4-methyl-3-oxo-3,4-dihydro-2H-pyrido[3,2-b][1,4]oxazin-7-yl)propyl)-1,3,5-triazin-2-yl)methanesulfonamide] | 0.085
COc1cc(F)ccc1C(C)Cc1nc(N[C@@H](CO)CC(C)C)nc(NS(C)(=O)=O)n1 (stereo partly drawn) [Example 162, N-(4-(2-(4-Fluoro-2-methoxyphenyl)propyl)-6-(((R)-1-hydroxy-4-methylpentan-2-yl)amino)-1,3,5-triazin-2-yl)methanesulfonamide] | 1.32
CC(C)C[C@H](CO)Nc1nc(CC(C)c2cccc3c2NC(=O)C3)nc(NS(C)(=O)=O)n1 (stereo partly drawn) [Example 163, N-(4-(((R)-1-Hydroxy-4-methylpentan-2-yl)amino)-6-(2-(2-oxoindolin-7-yl)propyl)-1,3,5-triazin-2-yl)methanesulfonamide] | 5.23
COc1cc(C)c([C@@H](C)Cc2nc(N[C@@H](CO)CC(C)C)nc(NS(C)(=O)=O)n2)cn1 (single isomer, unassigned) [Example 14, N-(4-(((R)-1-Hydroxy-4-methylpentan-2-yl)amino)-6-((S*)-2-(6-methoxy-4-methylpyridin-3-yl)propyl)-1,3,5-triazin-2-yl)methanesulfonamide] | > 10
CC(C)C[C@H](CO)Nc1nc(C[C@H](C)c2c(F)ccc(F)c2F)nc(NS(C)(=O)=O)n1 (single isomer, unassigned) [Example 41, N-(4-(((R)-1-Hydroxy-4-methylpentan-2-yl)amino)-6-((S*)-2-(2,3,6-trifluorophenyl)propyl)-1,3,5-triazin-2-yl)methanesulfonamide] | > 10
CC(C)C[C@H](CO)Nc1nc(C[C@H](C)c2c(F)cc(Cl)cc2F)nc(NS(C)(=O)=O)n1 (single isomer, unassigned) [Example 43, N-(4-((S*)-2-(4-Chloro-2,6-difluorophenyl)propyl)-6-(((R)-1-hydroxy-4-methylpentan-2-yl)amino)-1,3,5-triazin-2-yl)methanesulfonamide] | 9.11
CNC(=O)c1ccc(C(C)Cc2nc(N[C@@H](CO)CC(C)C)nc(NS(C)(=O)=O)n2)cc1F (stereo partly drawn) [Example 120, 2-Fluoro-4-(1-(4-(((R)-1-hydroxy-4-methylpentan-2-yl)amino)-6-(methylsulfonamido)-1,3,5-triazin-2-yl)propan-2-yl)-N-methylbenzamide] | 0.23
CC(C)C[C@H](CO)Nc1nc(CC(C)c2ccc(OC(C)C)nc2)nc(NS(C)(=O)=O)n1 (stereo partly drawn) [Example 159, N-(4-(((R)-1-Hydroxy-4-methylpentan-2-yl)amino)-6-(2-(6-isopropoxypyridin-3-yl)propyl)-1,3,5-triazin-2-yl)methanesulfonamide] | 0.264
CC(C)C[C@H](CO)Nc1nc(CC(C)c2ccc(C#N)c(Cl)c2)nc(NS(C)(=O)=O)n1 (stereo partly drawn) [Example 169, N-(4-(2-(3-Chloro-4-cyanophenyl)propyl)-6-(((R)-1-hydroxy-4-methylpentan-2-yl)amino)-1,3,5-triazin-2-yl)methanesulfonamide] | 0.815
CC(C)C[C@H](CO)Nc1nc(C[C@H](C)c2ccc(N)nc2)nc(NS(C)(=O)=O)n1 (single isomer, unassigned) [Example 50, N-(4-((S*)-2-(6-Aminopyridin-3-yl)propyl)-6-(((R)-1-hydroxy-4-methylpentan-2-yl)amino)-1,3,5-triazin-2-yl)methanesulfonamide] | 0.342
CC(C)C[C@H](CO)Nc1nc(CC(C)c2cnc3ccccc3c2)nc(NS(C)(=O)=O)n1 (stereo partly drawn) [Example 134, N-(4-(((R)-1-Hydroxy-4-methylpentan-2-yl)amino)-6-(2-(quinolin-3-yl)propyl)-1,3,5-triazin-2-yl)methanesulfonamide] | 0.203
CC(C)C[C@H](CO)Nc1nc(C[C@H](C)c2ccc(F)c(F)c2F)nc(NS(C)(=O)=O)n1 (relative stereo) [Example 87, N-(4-(((R)-1-Hydroxy-4-methylpentan-2-yl)amino)-6-((S*)-2-(2,3,4-trifluorophenyl)propyl)-1,3,5-triazin-2-yl)methanesulfonamide] | 0.186
Cc1cc(C(C)Cc2nc(N[C@@H](CO)CC(C)C)nc(NS(C)(=O)=O)n2)ccc1F (stereo partly drawn) [Example 111, N-(4-(2-(4-Fluoro-3-methylphenyl)propyl)-6-(((R)-1-hydroxy-4-methylpentan-2-yl)amino)-1,3,5-triazin-2-yl)methanesulfonamide] | 0.391
CC(C)C[C@H](CO)Nc1nc(CC(C)c2ccc(C(C)(F)F)cc2)nc(NS(C)(=O)=O)n1 (stereo partly drawn) [Example 71, N-(4-(2-(4-(1,1-Difluoroethyl)phenyl)propyl)-6-(((R)-1-hydroxy-4-methylpentan-2-yl)amino)-1,3,5-triazin-2-yl)methanesulfonamide] | 0.331
CC(C)C[C@H](CO)Nc1nc(C[C@H](C)c2ccc(F)c(Cl)c2)nc(NS(C)(=O)=O)n1 (single isomer, unassigned) [Example 65, N-(4-((S*)-2-(3-Chloro-4-fluorophenyl)propyl)-6-(((R)-1-hydroxy-4-methylpentan-2-yl)amino)-1,3,5-triazin-2-yl)methanesulfonamide] | 4.2

Stronger by IC50, values ahead:

IC50 [µM] | Compound
0.076 | CC(C)C[C@H](CO)Nc1nc(CC(C)c2ccc3ncoc3c2)nc(NS(C)(=O)=O)n1 (stereo partly drawn) [Example 61, N-(4-(2-(Benzo[d]oxazol-6-yl)propyl)-6-(((R)-1-hydroxy-4-methylpentan-2-yl)amino)-1,3,5-triazin-2-yl)methanesulfonamide]
0.063 | CC[C@H](Cc1nc(N[C@@H](CO)CC(C)C)nc(NS(C)(=O)=O)n1)c1cccc(F)c1F (single isomer, unassigned) [Example 47, N-(4-((R*)-2-(2,3-Difluorophenyl)butyl)-6-(((R)-1-hydroxy-4-methylpentan-2-yl)amino)-1,3,5-triazin-2-yl)methanesulfonamide]
0.058 | CC(C)C[C@H](CO)Nc1nc(CC(C)c2ccc3c(c2)OCO3)nc(NS(C)(=O)=O)n1 (stereo partly drawn) [Example 108, N-(4-(2-(Benzo[d][1,3]dioxol-5-yl)propyl)-6-(((R)-1-hydroxy-4-methylpentan-2-yl)amino)-1,3,5-triazin-2-yl)methanesulfonamide]
0.045 | Cc1ccc(C(C)Cc2nc(N[C@@H](CO)CC(C)C)nc(NS(C)(=O)=O)n2)cc1N (stereo partly drawn) [Example 114, N-(4-(2-(3-Amino-4-methylphenyl)propyl)-6-(((R)-1-hydroxy-4-methylpentan-2-yl)amino)-1,3,5-triazin-2-yl)methanesulfonamide]
0.034 | CC(C)C[C@H](CO)Nc1nc(C[C@@H](C)c2ccnc(F)c2)nc(NS(C)(=O)=O)n1 (single isomer, unassigned) [Example 91, N-(4-((R*)-2-(2-Fluoropyridin-4-yl)propyl)-6-(((R)-1-hydroxy-4-methylpentan-2-yl)amino)-1,3,5-triazin-2-yl)methanesulfonamide]
0.033 | COc1ccc([C@H](C)Cc2nc(N[C@@H](CO)CC(C)C)nc(NS(C)(=O)=O)n2)cc1F (single isomer, unassigned) [Example 19, N-(4-((R*)-2-(3-Fluoro-4-methoxyphenyl)propyl)-6-(((R)-1-hydroxy-4-methylpentan-2-yl)amino)-1,3,5-triazin-2-yl)methanesulfonamide]
0.03 | CC(C)C[C@H](CO)Nc1nc(C[C@@H](C)c2ccc(N)nc2)nc(NS(C)(=O)=O)n1 (single isomer, unassigned) [Example 51, N-(4-((R*)-2-(6-Aminopyridin-3-yl)propyl)-6-(((R)-1-hydroxy-4-methylpentan-2-yl)amino)-1,3,5-triazin-2-yl)methanesulfonamide]
0.024 | Cc1c2ccc(C(C)Cc3nc(N[C@@H](CO)CC(C)C)nc(NS(C)(=O)=O)n3)cc2nn1C (stereo partly drawn) [Example 106, N-(4-(2-(2,3-Dimethyl-2H-indazol-6-yl)propyl)-6-(((R)-1-hydroxy-4-methylpentan-2-yl)amino)-1,3,5-triazin-2-yl)methanesulfonamide]
0.021 | CC(C)C[C@H](CO)Nc1nc(CC(C)c2cccc(N)c2)nc(NS(C)(=O)=O)n1 (stereo partly drawn) [Example 121, N-(4-(2-(3-Aminophenyl)propyl)-6-(((R)-1-hydroxy-4-methylpentan-2-yl)amino)-1,3,5-triazin-2-yl)methanesulfonamide]
0.017 | CC(C)C[C@H](CO)Nc1nc(CC(C)c2cccc3cccnc23)nc(NS(C)(=O)=O)n1 (stereo partly drawn) [Example 103, N-(4-(((R)-1-Hydroxy-4-methylpentan-2-yl)amino)-6-(2-(quinolin-8-yl)propyl)-1,3,5-triazin-2-yl)methanesulfonamide]
0.016 | CC(C)C[C@H](CO)Nc1nc(CC(C)c2ccc(N)c(F)c2)nc(NS(C)(=O)=O)n1 (stereo partly drawn) [Example 136, N-(4-(2-(4-Amino-3-fluorophenyl)propyl)-6-(((R)-1-hydroxy-4-methylpentan-2-yl)amino)-1,3,5-triazin-2-yl)methanesulfonamide]
